Results taken from publication PMC10900488, “Synthesis and Evaluation of (Bis)benzyltetrahydroisoquinoline Alkaloids as Antiparasitic Agents” (JACS Au, 2024).
Where two headings read alike, the source gives them in different places.

Key:
L. infantum amastigotes = assay: Antiamastigote assay (L. infantum), ex vivo intracellular model of mice macrophages, microscopy; format: cell-based, Leishmania (L.) infantum; conditions: 96 h, read-out: L. infantum IC50 amastigotes
Protocol: (§1) Table 1 depicts the antileishmanial (L. infantum) activity evaluation performed against both the amastigote form (evaluated microscopically using an ex vivo intracellular model of mice macrophages) and the promastigote one (using an MTT colorimetric method).[32],[33] The cytotoxicity was evaluated against NCTC cells using an MTT colorimetric method and the selectivity index was determined using the ratio between the CC50 values (NCTC cells) and the IC50 values (amastigotes).[32] […] With respect to the substituents on the C ring, larger, hydrophobic groups conferred greater bioactivity (e.g., 9b–d), whereas small, hydrophilic groups such as a hydroxyl group afford modest to poor bioactivity.
(§2) Leishmania (L.) infantum (MHOM/BR/1972/LD) amastigotes were obtained from golden hamsters (Mesocricetus auratus) spleens following 60-70 days of infection via differential centrifugation. The Stauber method was used to determine the number of parasites.12 […]
(§3) Peritoneal macrophages were obtained via washing the peritoneal cavity of BALB/c mice with 10% foetal calf serum supplemented RPMI-1640 medium (pH 7.2). The macrophages were maintained in a humidified incubator at 37 °C and with 5% CO2.
(§4) Biological activity assays […]
Antiamastigote Assay (L. infantum)
Peritoneal macrophages (1 × 10^5/well) were added to a 16-well slide chambers (NUNC) and incubated with 5% CO2 at 37 °C. The cells were subsequently infected with L. infantum amastigotes (10:1 amastigotes/macrophage) for 24 h. Treatment of the cells with selected compounds (serially diluted 1.2 to 150 μM) was performed in a humidified incubator for 96 h at 37 °C and with 5% CO2. Untreated cells were used as a negative control and miltefosine was used as a standard drug. The treated cells were fixed on slides with methanol, stained with Giemsa and observed under a light microscope.13 The infection index was used in order to determine the half inhibitory concentration (IC50) (no. infected macrophages × no. amastigotes / total no. […]

T. cruzi trypomastigotes = assay: Antitrypomastigote assay (T. cruzi), resazurin; format: cell-based, Trypanosoma (T.) cruzi; conditions: 24 h, read-out: T. cruzi IC50 trypomastigotes
Protocol: (§5) T. cruzi also assumes several cell morphologies during its lifecycle, which differ between the insect vector and mammalian host. In the latter environment, the parasite transitions between extracellular bloodstream trypomastigotes and intracellular amastigotes; both forms are clinically relevant, particularly during the acute stage of Chagas disease.[34] In this work, antitrypanosomal activity was tested against both the amastigote form (evaluated microscopically using an ex vivo intracellular model using mice macrophages) and the trypomastigote form (using the resazurin in vitro assay).[33],[35] […] In silico predictions of pharmacokinetic profiles were carried out using the SwissADME webtool (see the Supporting Information for details).[36] […]
(§6) […] Cultivation was performed in 2% fetal calf serum supplemented RPMI-1640 medium.
(§7) The trypomastigotes were maintained in a humidified incubator at 37 °C and with 5% CO2. […]
as §4
The half inhibitory concentration (IC50) was determined from a sigmoidal regression of the concentration-response curves generated in GraphPadPrism7. […]
Treatment of the cells with selected compounds (serially diluted 1.2 to 150 μM) was performed in a humidified incubator in RPMI 1640 medium for 24 h at 37 °C and with 5% CO2. Resazurin (0.011% in PBS) was added subsequently to verify parasite viability. Benznidazole was used as a standard drug. The optical density was determined at 570 nm using the FilterMax F5 (Molecular Devices). […]

[1] = system: L. infantum promastigotes; assay: Antipromastigote assay (L. infantum), MTT colorimetric; format: cell-based, Leishmania (L.) infantum; conditions: 48 h; for IC50: Leishmania infantum, read-out: L. infantum IC50 promastigotes
Protocol: as §1, §2
Biological activity assays
Antipromastigote Assay (L. infantum)
L. infantum promastigotes (1 × 10^6 cells/well) were added to a 96-well plates. Treatment of the cells with selected compounds (serially diluted 0.14 to 200 μM) was performed in M199 medium supplemented with 0.25% hemin and 10% fetal bovine serum for 48 h at 24 °C. The MTT colorimetric assay was used to determine the activity (IC50) of the compounds. Miltefosine was used as a standard drug and untreated promastigotes were used as a negative control. The half inhibitory concentration (IC50) was determined from a sigmoidal regression of the concentration-response curves generated in GraphPadPrism7. […]

T. cruzi amastigotes = assay: Antiamastigote assay (T. cruzi), ex vivo intracellular model using mice macrophages, microscopy; format: cell-based, Trypanosoma (T.) cruzi; conditions: Trypanosoma cruzi, Peritoneal macrophage, 48 h, ± SD, read-out: T. cruzi IC50 amastigotes
Protocol: as §5, §6, §7, §3, §4
Peritoneal macrophages (1 × 10^5 cells/well) obtained from the peritoneal cavity of BALB/C mice were added to 16-well chambers (NUNC, Thermo Fischer Scientific). The cells were infected with trypomastigotes (10:1 parasites/macrophage) for 2 h. Then treatment of the infected macrophages with selected compounds (serially diluted 1.2 to 100 μM) was performed in a humidified incubator for 48 h at 37 °C and with 5% CO2. The treated cells were fixed on slides using methanol, stained with Giemsa and observed under a light microscope (EVOS M5000, Thermo, USA) with digital image equipment. The infection index was used in order to determine the half inhibitory concentration (IC50) (no. infected macrophages × no. amastigotes / total no.

[2] = Mammalian toxicity, MTT colorimetric; format: cell-based, murine; conditions: mouse
Protocol: as §1, with “bioactivity. […]” for “bioactivity.”
Murine conjunctive fibroblasts NCTC clone 929 (ATCC) were maintained in 10% foetal calf serum supplemented RPMI-1640 medium (pH 7.2) at 37 °C in a humidified incubator with 5% CO2. […]
as §4
NCTC cells (6 × 10^4/well) were added to a 96-well plate. Treatments of the cells with selected compounds (serially diluted 1.5 to 200 μM) was performed in a humidified incubator for 96 h at 37 °C and with 5% CO2.
The MTT colorimetric method was used to determine the 50% cytotoxic concentration (CC50) and the selectivity index (CC50 against NCTC cells/IC50 against amastigotes).15 […]
[…] At 6 h and 24 h post-treatment, a 1 mL aliquot was taken for imaging. The cell cycle experiment was preformed twice independently.
Generation of mNG::RAD51 tagged cell line
The single-stranded DNA-binding protein RAD51, associated with DNA Repair, LmxM.28.0550 was tagged with endogenous fluorescent protein mNeonGreen (mNG) at the N-terminus. […]
Primers for constructs and sgRNA were designed using LeishGEdit (http://www.leishGEdit.net).
PCR was at 94 °C for 5 min, followed by 35 cycles at 94 °C (15 sec), 65 °C (15 sec), 72 °C (2 min) then finally 72 °C (1 min).
PCR was at 94 °C for 30 sec, followed by 30 cycles at 94 °C (30 sec), 60 °C (30 sec), 72 °C (30 sec) then finally 72 °C (2 min). […] Combined PCR products were precipitated for 20 min with 10 μL 3M sodium acetate and 300 μL EtOH, pelleted at 14000 min-1 30 min, washed once with 70% EtOH, re-pelleted and resuspended in […]
Promastigotes (1 × 10^7 cells) were combined with PCR products and transfected using the Amaxa Nucleofector II.17 Electroporation was performed using 2 mm cuvettes on the X-100 program, followed by immediate suspension in pre-warmed M199 medium. Successful transfectants were selected with 20 μg mL-1 Puromycin 15 h after transfection, taking 4 days to reach stable growth in culture. mNG::RAD51 nuclear foci studies mNG::RAD51 promastigotes (5 × 10^6 cells mL-1) in 7 mL of M199 medium were treated with 7 μL o f compound (S)-9a or (S)-9b dissolved in DMSO giving a final concentration of 50 μM. Phleomycin was used as a positive control at a final concentration of 25 μg mL-1. At T = 0, 15, 30, 60 min, and 2, 6, 24 h post-treatment a 0.8 mL aliquot was taken for imaging.

[3] = Leishmania infantum, Peritoneal macrophage, ± SD, intracellular, peritoneal macrophages
[4] = Trypanosoma cruzi, ± SD, resazurin

| Compound | IC50 (L. infantum amastigotes; [3]) [µM] | IC50 (T. cruzi trypomastigotes; [4]) [µM] | IC50 ([1]; ± SD, MTT) [µM] | IC50 (T. cruzi amastigotes) [µM] | CC50 at 96 h [2] [µM] | IC50 (L. infantum amastigotes; Leishmania infantum, Peritoneal macrophage) [µM] | IC50 (T. cruzi trypomastigotes; Trypanosoma cruzi) [µM] | IC50 [1] [µM] | CC50 at 96 h ([2]; ± SD, NCTC cells, MTT, 96 h, read-out: CC50) [µM] | L. infantum IC50 promastigotes ([1]; ± SD, MTT) | IC50 (T. cruzi trypomastigotes; ± SD, resazurin) [µM] | IC50 (L. infantum amastigotes; ± SD, intracellular, peritoneal macrophages) [µM] |
| --- | --- | --- | --- | --- | --- | --- | --- | --- | --- | --- | --- | --- |
| COc1cc2c(cc1OC)[C@@H](Cc1ccc(Br)cc1)N(C)CC2 [(R)-9a] | 23.4 ± 3.4 | 28.3 ± 11.7 | 15.5 ± 5.8 | 31.8 ± 4.3 | 86.8 ± 2.9 | – | – | – | – | – | – | – |
| COc1cc2c(cc1OC)[C@H](Cc1ccc(Oc3cc(C[C@H]4c5cc(OC)c(OC)cc5CCN4C)ccc3O)cc1)N(C)CC2 [(S,S)-13, (+)-dauricine] | > 150 | 5.1 ± 4.8 | 5.5 ± 0.6 | 2.3 ± 1.1 | 15.9 ± 0.8 | – | – | – | – | – | – | – |
| COc1cc2c(cc1OC)[C@@H](Cc1ccc(Oc3cc(C[C@@H]4c5cc(OC)c(OC)cc5CCN4C)ccc3O)cc1)N(C)CC2 [(R,R)-13, (–)-dauricine] | 3.7 ± 0.6 | 3.7 ± 2.9 | 3.2 ± 1.1 | > 100 | 7 ± 1 | – | – | – | – | – | – | – |
| COc1cc2c(cc1OC)[C@@H](Cc1ccc(OC)c(Oc3ccc(C[C@H]4c5cc(OC)c(OC)cc5CCN4C)cc3)c1)N(C)CC2 [(R,S)-11] | > 150 | 6.5 ± 2.1 | 0.6 ± 0.1 | > 100 | 7.3 ± 0.7 | – | – | – | – | – | – | – |
| O=C(Cn1ccnc1[N+](=O)[O-])NCc1ccccc1 [benznidazole, reference compound] | – | 12.8 ± 0.7 | – | 5 ± 1.5 | > 200 | – | – | – | – | – | – | – |
| COc1cc2c(cc1OC)[C@@H](Cc1ccc(O)cc1)N(C)CC2 [(R)-10b, (–)-armepavine] | > 150 | 107 ± 1.8 | 4.8 ± 0.8 | > 100 | > 200 | – | – | – | – | – | – | – |
| COc1ccc(C[C@@H]2c3cc(OC)c(OC)cc3CCN2C)cc1O [(R)-10a, (–)-laudanidine] | – | – | – | – | – | > 150 | > 150 | 30.2 ± 4.8 | > 200 | – | – | – |
| COc1ccc(COc2ccc(C[C@H]3c4cc(OC)c(OC)cc4CCN3C)cc2Oc2ccc(C[C@H]3c4cc(OC)c(OC)cc4CCN3C)cc2)cc1 [(S,S)-12] | > 150 | 5.6 ± 2.1 | 1.1 ± 0.5 | > 100 | 20.8 ± 5.4 | – | – | – | – | – | – | – |
| COc1ccc(COc2ccc(C[C@H]3c4cc(OC)c(OC)cc4CCN3C)cc2Oc2ccc(C[C@@H]3c4cc(OC)c(OC)cc4CCN3C)cc2)cc1 [(S,R)-12] | > 150 | 1.7 ± 0.3 | 0.7 ± 0.1 | > 100 | 4.7 ± 1.7 | – | – | – | – | submicromolar | – | – |
| COc1ccc(COc2ccc(C[C@@H]3c4cc(OC)c(OC)cc4CCN3C)cc2Br)cc1 [(R)-9c] | > 150 | < 10 | 3.5 ± 1.2 | > 100 | 13.4 ± 1.3 | – | – | – | – | – | 8.5 ± 3.1 | – |
| COc1cc2c(cc1OC)[C@@H](Cc1ccc(OC)c(OCc3ccccc3)c1)N(C)CC2 [(R)-9b] | 13.1 ± 0.8 | 72.3 ± 3 | 3.3 ± 1.6 | – | 57.3 ± 3.3 | – | – | – | – | – | – | – |
| COc1ccc(COc2ccc(C[C@H]3c4cc(OC)c(OC)cc4CCN3C)cc2Br)cc1 [(S)-9c] | > 150 | 11.1 ± 1.7 | 5.2 ± 1.3 | 3.3 ± 0.01 | 6.3 ± 2.3 | – | – | – | – | – | – | – |
| COc1cc2c(cc1OC)[C@@H](Cc1ccc(Oc3cc(C[C@H]4c5cc(OC)c(OC)cc5CCN4C)ccc3O)cc1)N(C)CC2 [(R,S)-13] | > 150 | 10.1 ± 3.9 | 3.2 ± 1.7 | 2.8 ± 0.6 | 13.3 ± 1.6 | – | – | – | – | – | – | – |
| COc1cc2c(cc1OC)[C@H](Cc1ccc(O)cc1)N(C)CC2 [(S)-10b, (+)-armepavine] | > 150 | 124 ± 2.3 | 36.2 ± 5.2 | > 100 | > 200 | – | – | – | – | – | – | – |
| COc1cc2c(cc1OC)[C@@H](Cc1ccc(OCc3ccccc3)cc1)N(C)CC2 [(R)-9d] | < 10 | 16.5 ± 6.1 | 1.1 ± 0.5 | 6.2 ± 5.9 | 28.1 ± 0.5 | – | – | – | – | – | – | 9.4 ± 0.5 |
| COc1ccc(COc2ccc(C[C@@H]3c4cc(OC)c(OC)cc4CCN3C)cc2Oc2ccc(C[C@@H]3c4cc(OC)c(OC)cc4CCN3C)cc2)cc1 [(R,R)-12] | > 150 | 7.3 ± 1.5 | 1.1 ± 0.5 | > 100 | 13.9 ± 1.6 | – | – | – | – | – | – | – |
| CCCCCCCCCCCCCCCCOP(=O)([O-])OCC[N+](C)(C)C [miltefosine, reference compound] | 6.5 ± 3 | – | – | – | 120 ± 4.2 | – | – | – | – | – | – | – |
